This note sets out measurements from US7435837B2, “Dihydrobenzofuranyl alkanamine derivatives and methods for using same” (Wyeth, priority 2003, dated 2008).

SMILES strings stand for the structures. pEC50, pKi: −log10 of the molar value. Read-outs that look alike come from different tables or passages of the source.

What is called pKi is the negative decadic logarithm of the Ki, by convention in mol/L. For orientation: pEC50 means −log10 of the EC50, conventionally taken in molar units. The Ki is the dissociation constant of the complex between target and ligand, obtained from inhibition or displacement. A lower Ki goes with a stronger hold on the target. Broadly, the EC50 is the midpoint of the concentration-response curve.

The target of assay [1] is T1, human 5-hydroxytryptamine-2C (h5-HT2C) receptor (Homo sapiens, UniProt P28335).
T1 construct: expressed in transfected cells; host or cells: CHO (Chinese Hamster Ovary) cells; membranes
T1 sequence (P28335 33-458): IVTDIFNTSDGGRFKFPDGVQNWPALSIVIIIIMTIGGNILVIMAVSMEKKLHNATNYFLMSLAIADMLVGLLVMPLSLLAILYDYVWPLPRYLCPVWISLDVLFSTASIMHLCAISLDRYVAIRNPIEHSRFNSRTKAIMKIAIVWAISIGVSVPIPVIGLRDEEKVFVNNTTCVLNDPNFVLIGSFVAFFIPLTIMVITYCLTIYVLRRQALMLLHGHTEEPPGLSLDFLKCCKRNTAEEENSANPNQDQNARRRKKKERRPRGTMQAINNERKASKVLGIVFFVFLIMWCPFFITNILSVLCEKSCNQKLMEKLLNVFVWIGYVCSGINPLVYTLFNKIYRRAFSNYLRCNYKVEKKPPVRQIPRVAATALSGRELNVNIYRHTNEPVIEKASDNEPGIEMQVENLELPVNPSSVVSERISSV
Briefly: [125I]DOI binding to membranes of CHO cells expressing the human 5-HT2C receptor. To be noted: [125I]DOI radioligand, CHO cell membranes, room temperature 60 min; for pKi: read-out: 5-HT2C Affinity Ki.

In another assay the target is T2, human 5-HT2C receptor (Homo sapiens, UniProt P28335).
T2 sequence (P28335 33-458): T1 sequence (P28335 33-458)
Briefly: 5-HT2C receptor-stimulated calcium mobilization (FLIPR) in CHO cells.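 On all read-outs here: Fluo-3-AM fluorescence read on FLIPR every 1 s, agonist added after 10 baseline reads, response taken as peak minus lowest raw fluorescence count.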 It counts as cell-based. To be noted: for Emax: CHO; for pEC50: read-out: 5-HT2C Function EC50.

Where [2] appears, read: percentage of the response observed with a maximally effective concentration of 5-HT, read-out: 5-HT2C Function Emax (%).
[3] abbreviates: calcium mobilization, CHO cells stably expressing human 5-HT2C.

As to `NCC1Cc2cc(C(F)(F)F)cc(-c3cccnc3)c2O1` (racemic) [Example 343, (±)-{[7-pyridin-3-yl-5-(trifluoromethyl)-2,3-dihydro-1-benzofuran-2-yl]methyl}amine], the negative logarithm of the Ki (pKi) in assay [1] is 7.92. The Emax at human 5-HT2C receptor (setting [2]) is 90%. The negative logarithm of the EC50 (pEC50) on human 5-HT2C receptor (setting [3]) was 7.31.

For `NCC1Cc2cc(-c3ccccc3)cc(-c3ccccc3)c2O1` (racemic) [Example 344, (±)-[(5,7-diphenyl-2,3-dihydro-1-benzofuran-2-yl)methyl]amine], the negative logarithm of the Ki (pKi) in assay [1] is 6.56. Moreover, the Emax at human 5-HT2C receptor (setting [2]) came out at 60%. The pEC50 on human 5-HT2C receptor (setting [3]) is 5.54.

As to `COc1cc2c(c(-c3ccccc3F)c1)OC(CN)C2` (racemic) [Example 356, (±)-{[7-(2-fluorophenyl)-5-methoxy-2,3-dihydro-1-benzofuran-2-yl]methyl}amine], the pKi in assay [1] is 9.20. Besides, the Emax at human 5-HT2C receptor (setting [2]) is 100%. The negative-log EC50 (pEC50) on human 5-HT2C receptor (setting [3]) is 7.20.

With `COc1cc2c(c(-c3ccccc3Cl)c1)OC(CN)C2` (racemic) [Example 357, (±)-{[7-(2-chlorophenyl)-5-methoxy-2,3-dihydro-1-benzofuran-2-yl]methyl}amine], the Ki in assay [1] (5-HT2C Affinity Ki (nM)) came to 18 nM. The EC50 on human 5-HT2C receptor (5-HT2C Function EC50 (nM), calcium mobilization, CHO cells stably expressing human 5-HT2C) amounted to 2 nM. In addition, at human 5-HT2C receptor (read-out: 5-HT2C Function Emax (%), percentage of the response observed with a maximally effective concentration of 5-HT), the Emax turned out to be 100%.

For the compound `COc1cc2c(c(-c3ccccc3OC)c1)OC(CN)C2` (racemic) [Example 359, (±)-{[7-(2-methoxyphenyl)-5-methoxy-2,3-dihydro-1-benzofuran-2-yl]methyl}amine], in assay [1], the pKi is 8.00. At human 5-HT2C receptor (setting [2]), the Emax came out at 90%. Moreover, at human 5-HT2C receptor (setting [3]), the negative-log EC50 (pEC50) is 8.10.

Consider `COc1cc2c(c(-c3cccc(F)c3F)c1)OC(CN)C2` (racemic) [Example 361, (±)-{[7-(2,3-difluorophenyl)-5-methoxy-2,3-dihydro-1-benzofuran-2-yl]methyl}amine], for which, in assay [1], the negative-log Ki (pKi) was 7.48. Further, the Emax on human 5-HT2C receptor (setting [2]) stood at 90%. Further, on human 5-HT2C receptor (setting [3]), the negative logarithm of the EC50 (pEC50) is 7.14.

Turning to `COc1cc2c(c(-c3cccc(Cl)c3Cl)c1)OC(CN)C2` (racemic) [Example 362, (±)-{[7-(2,3-dichlorophenyl)-5-methoxy-2,3-dihydro-1-benzofuran-2-yl]methyl}amine], the pKi in assay [1] was 7.44. For the same compound, the Emax at human 5-HT2C receptor (setting [2]) stood at 70%. The negative logarithm of the EC50 (pEC50) on human 5-HT2C receptor (setting [3]) is 6.46.

`COc1cc2c(c(-c3cccc(C)c3C)c1)OC(CN)C2` (racemic) [Example 363, (±)-{[7-(2,3-dimethylphenyl)-5-methoxy-2,3-dihydro-1-benzofuran-2-yl]methyl}amine]: the negative-log Ki (pKi) in assay [1] was 7.59. For the same compound, at human 5-HT2C receptor (setting [2]), the Emax is 70%. On human 5-HT2C receptor (setting [3]), the pEC50 is 6.65.

In the case of `COc1cc2c(c(-c3ccc(F)cc3F)c1)OC(CN)C2` (racemic) [Example 364, (±)-{[7-(2,4-difluorophenyl)-5-methoxy-2,3-dihydro-1-benzofuran-2-yl]methyl}amine], in assay [1], the negative logarithm of the Ki (pKi) is 9.05. On human 5-HT2C receptor (setting [2]), the Emax stood at 85%. Also, the pEC50 on human 5-HT2C receptor (setting [3]) was 7.21.

Regarding `COc1cc2c(c(-c3ccc(Cl)cc3Cl)c1)OC(CN)C2` (racemic) [Example 365, (±)-{[7-(2,4-dichlorophenyl)-5-methoxy-2,3-dihydro-1-benzofuran-2-yl]methyl}amine], the pKi in assay [1] is 7.62. Further, the Emax at human 5-HT2C receptor (setting [2]) came to 100%. In addition, the negative-log EC50 (pEC50) on human 5-HT2C receptor (setting [3]) was 7.82.

With `COc1cc2c(c(-c3cc(F)ccc3F)c1)OC(CN)C2` (racemic) [Example 366, (±)-{[7-(2,5-difluorophenyl)-5-methoxy-2,3-dihydro-1-benzofuran-2-yl]methyl}amine], the pKi in assay [1] was 7.89. In addition, the Emax at human 5-HT2C receptor (setting [2]) turned out to be 80%. Besides, on human 5-HT2C receptor (setting [3]), the pEC50 is 6.40.

For `COc1cc2c(c(-c3cc(Cl)ccc3Cl)c1)OC(CN)C2` (racemic) [Example 367, (±)-{[7-(2,5-dichlorophenyl)-5-methoxy-2,3-dihydro-1-benzofuran-2-yl]methyl}amine], the pKi in assay [1] is 9.68. The Emax at human 5-HT2C receptor (setting [2]) turned out to be 100%. In addition, at human 5-HT2C receptor (setting [3]), the pEC50 was 8.52.

For `COc1cc2c(c(-c3cc(C)ccc3C)c1)OC(CN)C2` (racemic) [Example 370, (±)-{[7-(2,5-dimethylphenyl)-5-methoxy-2,3-dihydro-1-benzofuran-2-yl]methyl}amine], the pKi in assay [1] was 7.52. In addition, the Emax at human 5-HT2C receptor (setting [2]) was found to be 80%. Moreover, the pEC50 at human 5-HT2C receptor (setting [3]) is 6.72.

Turning to `COc1ccc(OC)c(-c2cc(OC)cc3c2OC(CN)C3)c1` (racemic) [Example 371, (±)-{[7-(2,5-dimethoxyphenyl)-5-methoxy-2,3-dihydro-1-benzofuran-2-yl]methyl}amine], the negative-log Ki (pKi) in assay [1] was 7.85. In addition, the Emax on human 5-HT2C receptor (setting [2]) worked out at 80%. Further, the negative logarithm of the EC50 (pEC50) on human 5-HT2C receptor (setting [3]) was 7.19.

Regarding `COc1cc2c(c(-c3cc(Cl)ccc3OC)c1)OC(CN)C2` (racemic) [Example 372, (±)-{[7-(5-chloro-2-methoxyphenyl)-5-methoxy-2,3-dihydro-1-benzofuran-2-yl]methyl}amine], the negative logarithm of the Ki (pKi) in assay [1] is 7.64. Moreover, the Emax on human 5-HT2C receptor (setting [2]) was found to be 80%. Further, the pEC50 on human 5-HT2C receptor (setting [3]) was 6.65.

`COc1cc2c(c(-c3ccc(F)c(Cl)c3)c1)OC(CN)C2` (racemic) [Example 373, (±)-{[7-(3-chloro-4-fluorophenyl)-5-methoxy-2,3-dihydro-1-benzofuran-2-yl]methyl}amine]: in assay [1], the pKi was 7.21. The Emax on human 5-HT2C receptor (setting [2]) stood at 60%. Besides, on human 5-HT2C receptor (setting [3]), the negative logarithm of the EC50 (pEC50) was 6.07.

Consider `COc1cc2c(c(-c3c(C)cccc3C)c1)OC(CN)C2` (racemic) [Example 374, (±)-{[7-(2,6-dimethylphenyl)-5-methoxy-2,3-dihydro-1-benzofuran-2-yl]methyl}amine], for which the pKi in assay [1] is 9.22. Besides, the Emax on human 5-HT2C receptor (setting [2]) turned out to be 100%. Also, on human 5-HT2C receptor (setting [3]), the pEC50 is 7.72.

As for `CCNCC1Cc2cccc(-c3c(Cl)cccc3Cl)c2O1` (racemic) [Example 390, (±)-N-{[7-(2,6-dichlorophenyl)-2,3-dihydro-1-benzofuran-2-yl]methyl}ethanamine], the pKi in assay [1] was 8.74. Also, the Emax on human 5-HT2C receptor (setting [2]) stood at 80%. Also, at human 5-HT2C receptor (setting [3]), the negative logarithm of the EC50 (pEC50) is 8.70.

Take `CC(C)NCC1Cc2cccc(-c3c(Cl)cccc3Cl)c2O1` (racemic) [Example 393, (±)-N-{[7-(2,6-dichlorophenyl)-2,3-dihydro-1-benzofuran-2-yl]methyl}propan-2-amine]: the negative-log Ki (pKi) in assay [1] is 7.67. For the same compound, the Emax at human 5-HT2C receptor (setting [2]) was 60%. Besides, on human 5-HT2C receptor (setting [3]), the pEC50 was 7.35.

In the case of `Cc1ccccc1-c1c(F)ccc2c1OC(CN)C2` (racemic) [Example 395, (±)-{[6-fluoro-7-(2-methylphenyl)-2,3-dihydro-1-benzofuran-2-yl]methyl}amine], the pKi in assay [1] was 9.52. In addition, the Emax at human 5-HT2C receptor (setting [2]) was 90%. Also, on human 5-HT2C receptor (setting [3]), the pEC50 was 9.40.

With `NCC1Cc2ccc(F)c(-c3ccccc3Cl)c2O1` (racemic) [Example 398, (±)-{[7-(2-chlorophenyl)-6-fluoro-2,3-dihydro-1-benzofuran-2-yl]methyl}amine], the negative-log Ki (pKi) in assay [1] is 10.40. Further, the Emax on human 5-HT2C receptor (setting [2]) was found to be 100%. In addition, on human 5-HT2C receptor (setting [3]), the pEC50 is 10.00.

For the compound `CNCC1Cc2ccc(F)c(-c3ccccc3C)c2O1` (racemic) [Example 401, (±)-{[6-fluoro-7-(2-methylphenyl)-2,3-dihydro-1-benzofuran-2-yl]methyl}methylamine], in assay [1], the pKi was 9.42. Moreover, the Emax on human 5-HT2C receptor (setting [2]) came out at 90%. The negative logarithm of the EC50 (pEC50) at human 5-HT2C receptor (setting [3]) was 9.15.
